Assay results published in article PMC8664216 (PLoS Neglected Tropical Diseases, 2021).

How the values were obtained:
Huh7 cells [1] = assay: ATPLite cytotoxicity assay; details: 7 μM ivermectin, 24 h
[2] = tested on: CHIKV-LR trans-replicase system; assay: CHIKV trans-replicase system, tomato marker by flow cytometry; type: cell-based, Chikungunya virus; details: for Percentage of fluorescent tomato marker expressing cells / Reduction of marker expressing cells compared to EtOH control: Huh7 cells; for Percentage of fluorescent tomato marker expressing cells: read at 24 h, EtOH control 8.18±0.45%
[3] = tested on: CHIKV in vitro transcribed RNA (CHIK-LR); assay: Virus cell entry-bypass assay: electroporation of in vitro transcribed CHIKV RNA, plaque assay; type: cell-based, Chikungunya virus; details: Huh7 cells electroporated with CHIKV RNA, 10 μM tomatidine, 16 h post-transfection
CHIKV-LR [4] = details: in vitro; cited from earlier work
CHIKV-LR [5] = assay: Infectious particle production (plaque assay) in siRNA knockdown Huh7 cells; type: cell-based, Chikungunya virus; details: CHIKV MOI 10, 10 μM tomatidine, 9 hpi
p62 = assay: Western blot of p62 in mock- or CHIKV-infected Huh7 cells; type: cell-based, human; details: 10 μM tomatidine, 9 hpi
TMX2 = assay: Western blot of TMX2 in mock- or CHIKV-infected Huh7 cells; type: cell-based, human; details: 10 μM tomatidine, 9 hpi
Huh7 cells [6] = details: cited from earlier work
CHIKV-LR [7] = assay: Western blot of CHIKV nsP2, E1 and capsid proteins; type: cell-based, Chikungunya virus; details: 9 hpi
CHIKV-LR [8] = assay: Time-trace and time-chase: intracellular CHIKV RNA copies by Q-RT-PCR; type: cell-based, Chikungunya virus; details: Huh7 cells; for Intracellular viral RNA load: MOI 10, 10 μM tomatidine at time of infection; for Reduction of intracellular RNA load compared to EtOH control: MOI 10, 10 μM tomatidine
CD98 = assay: Western blot of CD98 in mock- or CHIKV-infected Huh7 cells; type: cell-based, human; details: 10 μM tomatidine, 9 hpi
DENV-2 = details: DENV-2, in vitro; cited from earlier work
[9] = CHIKV-infected (MOI 10) Huh7 cells
[10] = Huh7, MOI 10, 10 μM tomatidine added at 4 hpi
[11] = Huh7, MOI 10, 10 μM tomatidine added at 6 hpi
[12] = Huh7, MOI 10, 10 μM tomatidine added simultaneous to infection

ivermectin
Cytotoxicity of the selected concentration (Huh7 cells [1]): non-toxic
Percentage of fluorescent tomato marker expressing cells ([2]; 7 μM ivermectin added 1 h post-transfection): 2.19±0.5%
Reduction of marker expressing cells compared to EtOH control ([2]; 7 μM ivermectin, 24 h post-transfection): 73%
MFI of tomato marker relative to EtOH control ([2]; marker-positive Huh7 cells, 7 μM ivermectin, 24 h post-transfection): 0.4±0.06

C[C@H]1CC[C@]2(NC1)O[C@H]1C[C@H]3[C@@H]4CC[C@H]5C[C@@H](O)CC[C@]5(C)[C@H]4CC[C@]3(C)[C@H]1[C@@H]2C [tomatidine, Tomatidine]
Reduction of virus titer [3]: 2.6 log
Infectious virus titer ([3]; EtOH control 5.0±0.1): 2.4±0.3 Log10 PFU/mL
EC50 (CHIKV-LR [4]): 1300 nM
Inhibition of infectious particle production compared to EtOH control (CHIKV-LR [5]; Huh7 cells with CD98 siRNA knock-down): 91.68%
Inhibition of infectious particle production compared to EtOH control (CHIKV-LR [5]; Huh7 cells with p62 knock-down (siRNA #1)): 86.37%
Inhibition of infectious particle production compared to EtOH control (CHIKV-LR [5]; Huh7 cells with p62 knock-down (siRNA #4)): 90.82%
Increase of p62 expression compared to solvent control (p62; [9]): 1.8 fold
Increase of p62 expression compared to solvent control (p62; mock-infected Huh7 cells): 1.7 fold
Change in protein expression of TMX2 (TMX2): did not induce any significant change
Highest non-toxic yet antiviral dose (Huh7 cells [6]): 10 µM
Percentage of fluorescent tomato marker expressing cells ([2]; 10 μM tomatidine added 1 h post-transfection): 4.4±0.69%
Reduction of marker expressing cells compared to EtOH control ([2]; 10 μM tomatidine, 24 h post-transfection): 46%
C (capsid) expression compared to EtOH control (CHIKV-LR [7]; [10]): 50%
E1 expression compared to EtOH control (CHIKV-LR [7]; [10]): 30%
nsP2 expression compared to EtOH control (CHIKV-LR [7]; [10]): 50%
C (capsid) expression compared to EtOH control (CHIKV-LR [7]; [11]): 60%
E1 expression compared to EtOH control (CHIKV-LR [7]; [11]): 40%
nsP2 expression compared to EtOH control (CHIKV-LR [7]; [11]): 60%
C (capsid) expression compared to EtOH control (CHIKV-LR [7]; [12]): 46%
E1 expression compared to EtOH control (CHIKV-LR [7]; [12]): 18%
nsP2 expression compared to EtOH control (CHIKV-LR [7]; [12]): 50%
Intracellular viral RNA load (CHIKV-LR [8]; 1 and 2 hpi (all experimental conditions)): ~ 7 Log10 copies
Intracellular viral RNA load (CHIKV-LR [8]; 4 hpi, EtOH 8.0±0.2): 7.8±0.1 Log10 copies
Intracellular viral RNA load (CHIKV-LR [8]; 6 hpi, EtOH 9.7±0.1): 9.2±0.1 Log10 copies
Intracellular viral RNA load (CHIKV-LR [8]; 8 hpi, EtOH 10.3±0.0): 9.9±0.1 Log10 copies
Reduction of intracellular RNA load compared to EtOH control (CHIKV-LR [8]; 6 hpi): 74%
Reduction of intracellular RNA load compared to EtOH control (CHIKV-LR [8]; 8 hpi): 62%
Intracellular viral RNA copy number vs absence of tomatidine (time-chase) (CHIKV-LR [8]; MOI 10, tomatidine added at 6 hpi, RNA at 8 and 10 hpi, without tomatidine 10.3±0.0 and 10.6±0.0 Log10): Comparable results
Increase of CD98 expression compared to solvent control (CD98; [9]): 1.4 fold
Increase of CD98 expression compared to solvent control (CD98; mock-infected Huh7 cells): 1.6 fold
EC50 (DENV-2): 820 nM
